# Results as given in patent publication US20250075179A1, “METHODS FOR INCREASING VIRAL TRANSDUCTION OF CELLS” (Trustees of Dartmouth College, priority 2021, published 2025).
# Assays:
# Assay type in all cases: cell-based
# human naïve B cells [1] = system: human naïve B cells
# human naïve B cells [2] = assay: Antibody class switching of naïve B cells after statin treatment, flow cytometry on Day 14; conditions: 5 μM Rosuvastatin 48 hours, then culture to Day 14, versus PBS control, FIG. 3
# Description: As noted above, statins and other agents should not substantially reduce target cell activity and function. One function of naïve B cells is the ability to engage in antibody class switching. […] Specifically, human naïve B cells were isolated and cultured as described above in Example 1. Cells were plated at a density of 1×10^5 cells B cells per 6 well with 1×10^4 feeder cells plated the previous day. The dual culture was grown in the media and cytokine mix described above with or without 5 μM Rosuvastatin. After 48 hours of treatment, media was changed and cells were allowed to continue growing in the media and fresh cytokines. Every 3-4 days half of the media was removed and replaced with fresh media and cytokines at 1× concentration. Cells were trypsinized and split 1:5 at day 7. Subclass of expressed antibody was assessed by flow cytometry on Day 14.
# human naïve B cells [3] = assay: LDL-R antibody enhancement of lentiviral transduction of B cells in feeder culture, GFP by flow cytometry; conditions: 48 hour 5 μM Rosuvastatin
compound,measurement,setting,value
CC(C)c1nc(N(C)S(C)(=O)=O)nc(-c2ccc(F)cc2)c1/C=C/[C@@H](O)C[C@@H](O)CC(=O)O [rosuvastatin],"B cell transduction percentage, some replicates",human naïve B cells [1],exceeding 90%
same,GFP expression compared to B cells not treated with the statin or not transduced,human naïve B cells [1],substantially higher
same,"average B cell transduction percentage as measured by GFP expression, between technical replicates",human naïve B cells [1],80%
same,transduction relative to B cells not incubated with rosuvastatin,human naïve B cells [1],about 100 fold
same,percent of B cells expressing the measured subclasses of antibody (class switching),human naïve B cells [2],did not alter
same,Median Fluorescence Intensity,"human naïve B cells [3]; GFP+ virus, feeder culture + 250 ng/ml IL-2, no LDL-R antibody",9.5
same,Median Fluorescence Intensity,"human naïve B cells [3]; GFP+ virus, feeder culture + 250 ng/ml IL-2, with anti-mouse LDL-R antibody 2 μg/mL",10
same,Median Fluorescence Intensity,"human naïve B cells [3]; GFP− virus (control virus), feeder culture + 250 ng/ml IL-2, no LDL-R antibody",3
